Measured values reported in ChEMBL document CHEMBL1201862, “PubChem BioAssay data set” (2004).
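Values below derive from 48-hour exposures of cells grown in 96-well plates, with endpoints linearly interpolated between the two concentrations bracketing the appropriate inhibition level. GI50 marks 50% less growth.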 The source made the active and inactive calls. Rule as the data show it: active = GI50 up to about 1.1 µM and inactive = higher.

What was measured:
Experiment in all cases: NCI-60 cell line screen, 48 h
HOP-92 = tested on: HOP-92
OVCAR-3 = tested on: OVCAR-3
HCT-15 = tested on: HCT-15
MCF7 = tested on: MCF7
MDA-MB-435 = tested on: MDA-MB-435
COLO 205 = tested on: COLO 205
SK-MEL-28 = tested on: SK-MEL-28
HCC 2998 = tested on: HCC 2998
NCI-H226 = tested on: NCI-H226
786-0 = tested on: 786-0
KM12 = tested on: KM12
Malme-3M = tested on: Malme-3M
LOX IMVI = tested on: LOX IMVI
SNB-75 = tested on: SNB-75
SN12C = tested on: SN12C
SW-620 = tested on: SW-620
HOP-62 = tested on: HOP-62
OVCAR-8 = tested on: OVCAR-8
SNB-19 = tested on: SNB-19
TK-10 = tested on: TK-10

| SMILES | GI50 (HOP-92) | GI50 (OVCAR-3) | GI50 (HCT-15) [µM] | GI50 (MCF7) | GI50 (MDA-MB-435) | GI50 (COLO 205) | GI50 (SK-MEL-28) | GI50 (HCC 2998) | GI50 (NCI-H226) | GI50 (786-0) | GI50 (KM12) | GI50 (Malme-3M) | GI50 (LOX IMVI) | GI50 (SNB-75) | GI50 (SN12C) | GI50 (SW-620) | GI50 (HOP-62) | GI50 (OVCAR-8) | GI50 (SNB-19) | GI50 (TK-10) |
| --- | --- | --- | --- | --- | --- | --- | --- | --- | --- | --- | --- | --- | --- | --- | --- | --- | --- | --- | --- | --- |
| CCSc1c2cc(OC)ccc2nc2ccc(OC)cc12 | > 60.8 µM (inactive) | 16.9 µM (inactive) | 8.34 | 4.99 µM (inactive) | 5.13 µM (inactive) | 7.26 µM (inactive) | 14.9 µM (inactive) | 7.53 µM (inactive) | 11.9 µM (inactive) | 16 µM (inactive) | 11.2 µM (inactive) | 13.7 µM (inactive) | 13.2 µM (inactive) | 6.73 µM (inactive) | 14.3 µM (inactive) | 17.7 µM (inactive) | 19.1 µM (inactive) | 16.4 µM (inactive) | 26.2 µM (inactive) | 9.64 µM (inactive) |
| COc1cccc(-c2cc(=O)c3cc(N4CCCCC4)ccc3[nH]2)c1 | 13.1 µM (inactive) | < 0.01 µM (active) | < 0.0167 | < 0.01 µM (active) | < 0.01 µM (active) | < 0.0139 µM (active) | > 100 µM (inactive) | 0.0434 µM (active) | 0.0127 µM (active) | < 0.0119 µM (active) | < 0.01 µM (active) | 13.7 µM (inactive) | < 0.0177 µM (active) | 0.6 µM (active) | 0.0332 µM (active) | < 0.0145 µM (active) | < 0.0145 µM (active) | 0.026 µM (active) | < 0.0117 µM (active) | 79.3 µM (inactive) |
| CN(Cc1cnc2nc(N)nc(N)c2n1)c1ccc(C(=O)NC(CCC(=O)NCCC(P(=O)(O)O)P(=O)(O)O)C(=O)O)cc1 (stereo not given) | > 100 µM (inactive) | 37.2 µM (inactive) | 6.67 | 5 µM (inactive) | 6.03 µM (inactive) | > 82.6 µM (inactive) | > 100 µM (inactive) | 71.4 µM (inactive) | > 89.7 µM (inactive) | 6.11 µM (inactive) | 6.38 µM (inactive) | > 35.8 µM (inactive) | 4.38 µM (inactive) | > 100 µM (inactive) | 11 µM (inactive) | > 23.3 µM (inactive) | 52.6 µM (inactive) | 7.29 µM (inactive) | > 87.7 µM (inactive) | > 100 µM (inactive) |
